Our source for the IC50 values is patent US20240101576A1, “HETEROCYCLIC INHIBITORS OF EGFR AND/OR HER2, FOR USE IN THE TREATMENT OF CANCER” (Scorpion Therapeutics, Inc., priority 2020, published 2024).

As a reminder, the IC50 is the midpoint of a concentration-inhibition curve.

Type in all cases: cell-based
The target of experiment [1] is T1, EGFR exon 20 NPG Ins D770_N771 (Ba/F3 cells) (Homo sapiens, UniProt P00533, INS770NPG).
T1 construct: expressed in transfected cells; host or cells: Ba/F3 (murine pro-B cells), retroviral transduction, puromycin selection, IL3-independent pool
T1 sequence (P00533 with tags, fused parts or gaps INS770NPG): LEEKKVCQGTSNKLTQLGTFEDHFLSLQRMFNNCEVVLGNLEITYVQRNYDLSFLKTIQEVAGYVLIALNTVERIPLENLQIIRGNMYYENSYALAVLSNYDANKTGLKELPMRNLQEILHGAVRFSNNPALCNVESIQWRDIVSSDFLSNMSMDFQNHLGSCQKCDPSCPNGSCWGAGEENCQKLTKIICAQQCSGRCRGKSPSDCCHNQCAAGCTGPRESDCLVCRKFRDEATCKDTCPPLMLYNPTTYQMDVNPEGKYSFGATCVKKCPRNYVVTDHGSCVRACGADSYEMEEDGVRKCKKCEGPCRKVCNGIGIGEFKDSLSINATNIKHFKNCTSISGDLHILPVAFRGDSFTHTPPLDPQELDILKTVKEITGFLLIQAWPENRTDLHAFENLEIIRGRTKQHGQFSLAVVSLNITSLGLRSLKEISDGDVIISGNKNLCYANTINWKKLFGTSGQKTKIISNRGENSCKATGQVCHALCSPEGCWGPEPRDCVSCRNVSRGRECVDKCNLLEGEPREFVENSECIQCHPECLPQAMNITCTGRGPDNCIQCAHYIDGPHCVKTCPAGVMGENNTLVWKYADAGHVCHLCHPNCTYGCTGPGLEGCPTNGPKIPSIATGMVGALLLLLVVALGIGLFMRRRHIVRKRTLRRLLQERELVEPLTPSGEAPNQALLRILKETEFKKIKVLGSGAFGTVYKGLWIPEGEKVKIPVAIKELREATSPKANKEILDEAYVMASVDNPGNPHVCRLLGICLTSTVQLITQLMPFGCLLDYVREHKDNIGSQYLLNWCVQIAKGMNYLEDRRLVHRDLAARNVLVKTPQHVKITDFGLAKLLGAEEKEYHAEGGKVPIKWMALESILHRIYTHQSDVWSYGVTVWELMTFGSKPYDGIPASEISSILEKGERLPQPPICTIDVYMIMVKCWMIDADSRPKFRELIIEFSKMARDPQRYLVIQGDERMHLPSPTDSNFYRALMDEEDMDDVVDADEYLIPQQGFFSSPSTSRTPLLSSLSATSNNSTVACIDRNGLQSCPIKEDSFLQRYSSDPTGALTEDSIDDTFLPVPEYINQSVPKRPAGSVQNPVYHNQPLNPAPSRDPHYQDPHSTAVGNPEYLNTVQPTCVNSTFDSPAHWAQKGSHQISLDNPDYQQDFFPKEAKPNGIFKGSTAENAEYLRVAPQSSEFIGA
As to the kind of experiment: Inhibitor activity on EGFR phosphorylation (pEGFR AlphaLISA, 2 h), Ba/F3 EGFR exon 20 NPG Ins. The text has this:
Example B. Inhibitor Activity on EGFR phosphorylation (pEGFR)
EGFR mutant Ba/F3 cells were generated by transduction with retrovirus containing vectors expressing EGFR L858R, EGFR exon 19del, EGFR L858R/C797S, EGFR exon 20 NPG Ins D770_N771, EGFR exon 20 ASV Ins V769_D770, or EGFR exon 20 SVD Ins D770_N771 genes along with a puromycin selection marker. Transduced cells are selected with puromycin for 7 days and are then be transferred into culture media without Interleukin 3 (IL3). Surviving cells are confirmed to express EGFR by Western blot and maintained as a pool. CUTO14 cells were obtained from Dr. Robert C. Doebele at the University of Colorado. The IC50 date are included in Table 6 and Table 7.
1.1 Cells are harvested from flask into cell culture medium and the cell number counted.
1.2 Cells are diluted with culture medium to the desired density and 40 μL of cell suspension is added into each well of 384-well cell culture plate and the seeding density is 50K cells/well (Ba/F3) or 12.5K cells/well (CUTO14).
2 Compound Preparation and Treatment
2.1 Test compounds are dissolved to 10 mM in a DMSO stock solution. 45 μL of stock solution is transferred to a 384 polypropylene plate (pp-plate). Perform 3-fold, 10-point dilution via transferring 15 μL compound into 30 μL DMSO using a TECAN (EVO200) liquid handler.
2.2 Spin plates at room temperature at 1,000 RPM for 1 minute.
2.3 Transfer 5 nL of diluted compound from compound source plate into the cell plate.
2.4 After compound treatment for 2 hours, perform pEGFR detection by AlphaLISA for compound treatment plates as described in “Detection” section.
3 Detection by pEGFR AlphaLISA (Perkin-Elmer)
3.1 Plates are removed from incubators and equilibrated at room temperature for 10 minutes, and media was removed
3.2 10 μL of lysis buffer is added and plates shaken at 600 rpm for 1 hr.
3.3 Prepare acceptor mix just before use and dispense 5 μL of acceptor mix to all the wells. Shake 350 rpm for Ihr in the dark
3.4 Prepare donor mix under low light conditions prior to use. Dispense 5 μL of donor mix to all the wells. Mix well on the shaker, seal and wrap in aluminum foil and incubate 1.5 hrs at room temperature in the dark
3.5 Transfer 18.5 μL mixture to OptiPlate 384, and read using an Envision. The IC50 date were included in Table 6 and Table 7.

Experiment [2] deals with T2, EGFR WT (Ba/F3 cells) (Homo sapiens, UniProt P00533).
T2 construct: expressed in transfected cells; host or cells: Ba/F3 (murine pro-B cells), retroviral transduction, puromycin selection, maintained with EGF
T2 sequence (P00533 25-1210): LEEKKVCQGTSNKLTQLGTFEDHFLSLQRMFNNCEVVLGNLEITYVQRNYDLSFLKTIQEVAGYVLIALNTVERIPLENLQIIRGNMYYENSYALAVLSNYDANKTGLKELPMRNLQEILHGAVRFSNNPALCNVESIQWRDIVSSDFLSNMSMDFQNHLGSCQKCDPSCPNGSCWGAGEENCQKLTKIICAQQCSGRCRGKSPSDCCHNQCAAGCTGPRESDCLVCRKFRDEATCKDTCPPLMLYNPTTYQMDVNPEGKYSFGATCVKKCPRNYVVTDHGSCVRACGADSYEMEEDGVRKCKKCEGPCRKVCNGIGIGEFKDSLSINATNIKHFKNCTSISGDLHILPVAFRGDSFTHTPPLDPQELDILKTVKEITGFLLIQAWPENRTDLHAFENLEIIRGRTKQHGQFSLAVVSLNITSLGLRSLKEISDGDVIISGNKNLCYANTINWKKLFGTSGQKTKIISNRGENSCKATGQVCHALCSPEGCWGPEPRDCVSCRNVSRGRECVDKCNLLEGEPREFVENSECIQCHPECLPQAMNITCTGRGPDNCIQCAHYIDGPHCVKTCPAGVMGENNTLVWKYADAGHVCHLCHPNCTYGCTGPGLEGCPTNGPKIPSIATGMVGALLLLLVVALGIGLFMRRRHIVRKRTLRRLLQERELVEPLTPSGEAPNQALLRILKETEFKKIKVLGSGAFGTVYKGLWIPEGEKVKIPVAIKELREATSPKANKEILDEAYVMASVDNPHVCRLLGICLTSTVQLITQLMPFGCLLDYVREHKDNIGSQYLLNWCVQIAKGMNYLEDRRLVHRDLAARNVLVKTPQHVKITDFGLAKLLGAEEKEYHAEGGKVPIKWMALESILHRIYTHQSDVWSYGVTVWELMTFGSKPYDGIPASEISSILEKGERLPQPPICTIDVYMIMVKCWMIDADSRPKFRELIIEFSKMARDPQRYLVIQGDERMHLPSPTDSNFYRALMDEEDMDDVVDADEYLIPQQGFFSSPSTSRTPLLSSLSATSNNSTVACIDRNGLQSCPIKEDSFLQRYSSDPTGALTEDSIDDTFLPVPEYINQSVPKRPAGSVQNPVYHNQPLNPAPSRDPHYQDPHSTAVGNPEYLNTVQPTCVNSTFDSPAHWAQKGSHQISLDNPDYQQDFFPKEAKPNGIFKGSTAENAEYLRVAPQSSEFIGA
As to the kind of experiment: Inhibitor activity on EGFR-dependent cell growth (CellTiter-Glo, 72 h), Ba/F3 EGFR WT. Conditions: read-out: BaF3 WT IC50. In outline:
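This growth assay used Ba/F3 cells that depend on wild-type EGFR and are kept in EGF without IL3. Compounds were made up as 10 mM DMSO stocks and diluted 3-fold over 10 points. 120 nL went onto 600 cells/well. After 72 hours, 40 μL CellTiter-Glo was added and luminescence read on EnVision after 30 min.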
In general terms: Cellular ATP, detected with luciferase, serves as a proxy for viable cell number.

Experiment [3] concerns the target T3, EGFR exon 20 FQEA Ins A763_V764 (Ba/F3 cells) (Homo sapiens, UniProt P00533, INS763FQEA).
T3 construct: expressed in transfected cells; host or cells: Ba/F3 (murine pro-B cells), retroviral transduction, puromycin selection, IL3-independent pool
As to the kind of experiment: Inhibitor activity on EGFR-dependent cell growth (CellTiter-Glo, 72 h), Ba/F3 EGFR exon 20 FQEA Ins. The conditions noted are these: read-out: BaF3 FQEA IC50. Summed up:
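Ba/F3, retrovirally transduced, puromycin-selected, grown without IL3; cells/well: L858R 400, L858R/C797S 600, exon 19del 800, FQEA 800. Cpds from 10 mM DMSO stock, 3-fold ×10 dilution, 120 nL per well; 72 h. CTG readout; IC50 via Hill equation.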

For experiment [4], the target named is T1, EGFR exon 20 NPG Ins D770_N771 (Ba/F3 cells). As to the kind of experiment: Inhibitor activity on EGFR-dependent cell growth (CellTiter-Glo, 72 h), Ba/F3 EGFR exon 20 NPG Ins. Conditions: read-out: BaF3 NPG IC50. Summed up: (§1)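 IC50s derive from a sigmoidal dose–response fit of CellTiter-Glo signal. The signal was normalised between […]-treated cells and cell-free medium. Ba/F3 mutant-EGFR cells, seeded at 400–800/well depending on the line, had 72 h of exposure to a 10-point, 3-fold compound series.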

Experiment [5] has as its target T4, EGFR exon 20 SVD Ins D770_N771 (Ba/F3 cells) (Homo sapiens, UniProt P00533, INS770SVD).
T4 construct: expressed in transfected cells; host or cells: Ba/F3 (murine pro-B cells), retroviral transduction, puromycin selection, IL3-independent pool
As to the kind of experiment: Inhibitor activity on EGFR-dependent cell growth (CellTiter-Glo, 72 h), Ba/F3 EGFR exon 20 SVD Ins. The conditions noted are these: read-out: BaF3 SVD IC50. Summed up: as §1

The target in experiment [6] is T5, EGFR exon 20 ASV Ins V769_D770 (Ba/F3 cells) (Homo sapiens, UniProt P00533, INS769ASV).
T5 construct: expressed in transfected cells; host or cells: Ba/F3 (murine pro-B cells), retroviral transduction, puromycin selection, IL3-independent pool
As to the kind of experiment: Inhibitor activity on EGFR-dependent cell growth (CellTiter-Glo, 72 h), Ba/F3 EGFR exon 20 ASV Ins. Conditions: read-out: BaF3 ASV IC50. In outline:
as §1

The target of experiment [7] is T5, EGFR exon 20 ASV Ins V769_D770 (Ba/F3 cells). Kind of experiment: Inhibitor activity on EGFR phosphorylation (pEGFR AlphaLISA, 2 h), Ba/F3 EGFR exon 20 ASV Ins. Conditions: EGFR phosphorylation, AlphaLISA, 2 hours; read-out: ASV IC50 (pEGFR). Summed up:
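IL3-independent Ba/F3 cells transduced with mutant EGFR (50K/well) or CUTO14 cells (12.5K/well) were treated 2 h with 10-point, 3-fold compound dilutions. Phospho-EGFR in lysates was measured by AlphaLISA to derive IC50.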

A value given as a limit tells only on which side of the number the result lay.

T4 sequence (P00533 with tags, fused parts or gaps INS770SVD): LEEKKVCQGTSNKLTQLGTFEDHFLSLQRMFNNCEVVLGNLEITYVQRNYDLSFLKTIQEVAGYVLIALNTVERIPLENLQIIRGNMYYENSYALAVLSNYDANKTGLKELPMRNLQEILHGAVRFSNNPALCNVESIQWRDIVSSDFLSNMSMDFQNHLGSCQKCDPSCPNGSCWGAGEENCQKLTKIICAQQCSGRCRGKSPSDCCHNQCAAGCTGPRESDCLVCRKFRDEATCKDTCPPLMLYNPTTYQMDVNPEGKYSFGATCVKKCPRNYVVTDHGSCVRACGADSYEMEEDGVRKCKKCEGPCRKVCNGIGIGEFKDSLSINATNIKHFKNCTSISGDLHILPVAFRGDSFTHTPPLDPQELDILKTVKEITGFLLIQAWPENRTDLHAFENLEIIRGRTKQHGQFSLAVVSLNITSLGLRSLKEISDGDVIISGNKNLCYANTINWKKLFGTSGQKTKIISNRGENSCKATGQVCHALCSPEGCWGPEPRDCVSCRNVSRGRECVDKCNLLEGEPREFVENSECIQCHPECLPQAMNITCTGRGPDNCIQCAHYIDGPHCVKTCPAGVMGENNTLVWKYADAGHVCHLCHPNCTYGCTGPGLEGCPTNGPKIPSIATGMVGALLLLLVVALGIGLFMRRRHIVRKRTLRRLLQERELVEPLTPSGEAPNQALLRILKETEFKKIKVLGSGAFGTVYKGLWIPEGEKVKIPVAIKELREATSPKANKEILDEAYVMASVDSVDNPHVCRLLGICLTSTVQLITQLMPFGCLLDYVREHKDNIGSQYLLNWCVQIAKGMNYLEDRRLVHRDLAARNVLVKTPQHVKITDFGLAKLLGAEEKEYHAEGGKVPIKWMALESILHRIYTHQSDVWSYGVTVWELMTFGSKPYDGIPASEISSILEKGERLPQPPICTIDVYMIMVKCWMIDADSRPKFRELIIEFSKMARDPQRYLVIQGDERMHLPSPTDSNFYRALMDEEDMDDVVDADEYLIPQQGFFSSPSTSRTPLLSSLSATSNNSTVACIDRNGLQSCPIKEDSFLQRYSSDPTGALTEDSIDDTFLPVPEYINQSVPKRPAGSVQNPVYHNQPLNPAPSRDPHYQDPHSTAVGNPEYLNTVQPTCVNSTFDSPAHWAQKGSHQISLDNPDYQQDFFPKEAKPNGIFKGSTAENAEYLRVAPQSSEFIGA
T3 sequence (P00533 with tags, fused parts or gaps INS763FQEA): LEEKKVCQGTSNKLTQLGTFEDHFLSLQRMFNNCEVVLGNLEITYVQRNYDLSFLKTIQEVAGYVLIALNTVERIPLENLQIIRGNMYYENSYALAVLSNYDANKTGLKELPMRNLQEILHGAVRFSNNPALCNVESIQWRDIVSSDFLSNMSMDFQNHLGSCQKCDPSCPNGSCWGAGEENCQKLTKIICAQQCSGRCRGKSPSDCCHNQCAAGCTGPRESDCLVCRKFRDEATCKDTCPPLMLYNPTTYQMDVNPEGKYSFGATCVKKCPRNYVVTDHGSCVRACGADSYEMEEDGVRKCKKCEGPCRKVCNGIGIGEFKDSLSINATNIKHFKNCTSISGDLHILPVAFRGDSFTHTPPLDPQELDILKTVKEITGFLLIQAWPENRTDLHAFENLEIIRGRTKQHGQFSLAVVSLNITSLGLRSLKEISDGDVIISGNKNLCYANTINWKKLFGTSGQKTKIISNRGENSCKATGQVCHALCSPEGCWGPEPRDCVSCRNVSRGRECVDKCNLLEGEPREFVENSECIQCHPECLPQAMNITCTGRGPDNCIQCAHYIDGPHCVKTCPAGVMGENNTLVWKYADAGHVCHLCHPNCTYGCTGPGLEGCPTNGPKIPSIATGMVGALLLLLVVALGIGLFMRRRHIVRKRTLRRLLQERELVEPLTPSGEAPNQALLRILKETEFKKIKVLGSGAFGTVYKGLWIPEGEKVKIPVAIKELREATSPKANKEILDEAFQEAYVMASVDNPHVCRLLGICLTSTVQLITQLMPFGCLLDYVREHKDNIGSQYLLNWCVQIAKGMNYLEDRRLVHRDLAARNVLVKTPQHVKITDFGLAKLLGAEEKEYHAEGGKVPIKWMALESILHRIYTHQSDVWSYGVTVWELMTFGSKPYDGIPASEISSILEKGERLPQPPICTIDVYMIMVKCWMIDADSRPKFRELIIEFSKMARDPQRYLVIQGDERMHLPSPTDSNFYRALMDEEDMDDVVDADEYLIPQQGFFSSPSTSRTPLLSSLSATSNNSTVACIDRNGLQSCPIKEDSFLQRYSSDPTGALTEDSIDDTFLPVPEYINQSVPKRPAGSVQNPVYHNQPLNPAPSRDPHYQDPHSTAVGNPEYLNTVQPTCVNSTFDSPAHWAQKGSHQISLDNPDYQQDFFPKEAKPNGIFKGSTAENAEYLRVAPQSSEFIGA

Turning to `COc1c(F)cccc1Nc1c(-c2ccnc(N)n2)[nH]c2c1C(=O)NCC2` [compound 281], the IC50 is under 100 nM in experiment [1], over 1000 nM in experiment [2], 100 to 1000 nM in experiment [3] and under 100 nM in experiment [4].

Regarding `COc1c(Cl)cccc1Nc1c(-c2ccnc3cnc(OCCN(C)C)nc23)[nH]c2c1C(=O)NCC2` [compound 502, 3-[(3-chloro-2-methoxyphenyl)amino]-2-{2-[2-(dimethylamino)ethoxy]pyrido[3,2-d]pyrimidin-8-yl}-1H,5H,6H,7H-pyrrolo[3,2-c]pyridin-4-one], the IC50 in experiment [5] is 100 to 1000 nM; in experiment [1] it was under 100 nM; in experiment [2] it was over 1000 nM; in experiment [3], 100 to 1000 nM; in experiment [6], 100 to 1000 nM; in experiment [4] it was 100 to 1000 nM.

For `C=CC(=O)N1CCC2(CC1)CNC(=O)c1c2[nH]c(-c2ccncc2F)c1Nc1cccc(F)c1CC` [Compound 557, 3′-[(2-ethyl-3-fluorophenyl)amino]-2′-(3-fluoropyridin-4-yl)-1-(prop-2-enoyl)-5′,6′-dihydro-1′H-spiro[piperidine-4,7′-pyrrolo[3,2-c]pyridin]-4′-one], the IC50 in experiment [5], in experiment [1], in experiment [2], in experiment [6] and in experiment [4] was under 100 nM each time.

For the molecule `COc1c(F)cccc1Nc1c(-c2snc3ccccc23)[nH]c2c1C(=O)NCC2` [Compound 157, 2-(benzo[c]isothiazol-3-yl)-3-((3-fluoro-2-methoxyphenyl)amino)-1,5,6,7-tetrahydro-4H-pyrrolo[3,2-c]pyridin-4-one], the figures for the IC50 in experiment [1], in experiment [2] and in experiment [4] were over 1000 nM, 100 to 1000 nM and over 1000 nM, respectively.

For `C=CC(=O)N1CCN(c2ncc3nccc(-c4[nH]c5c(c4Nc4cccc(F)c4OC)C(=O)NCC5)c3n2)CC1` [Compound 576, 3-[(3-fluoro-2-methoxyphenyl)amino]-2-{2-[4-(prop-2-enoyl)piperazin-1-yl]pyrido[3,2-d]pyrimidin-8-yl}-1H,5H,6H,7H-pyrrolo[3,2-c]pyridin-4-one], the IC50 in experiment [5], in experiment [1], in experiment [2], in experiment [6] and in experiment [4] was under 100 nM throughout.

For the molecule `COc1cc2nccc(-c3[nH]c4c(c3Nc3cccc(F)c3C)C(=O)NCC4)c2nc1OC` [Compound 808, 2-(6,7-dimethoxy-1,5-naphthyridin-4-yl)-3-[(3-fluoro-2-methylphenyl)amino]-1H,5H,6H,7H-pyrrolo[3,2-c]pyridin-4-one], the IC50 in experiment [5], in experiment [1], in experiment [2], in experiment [3] and in experiment [6] was under 100 nM in each case.

With `C=CC(=O)N1CCC(Oc2nc3c(-c4[nH]c5c(c4Nc4cccc(Cl)c4OC)C(=O)NCC5)ccnc3cc2OC)CC1` [Compound 731, 3-[(3-chloro-2-methoxyphenyl)amino]-2-(7-methoxy-6-{[1-(prop-2-enoyl)piperidin-4-yl]oxy}-1,5-naphthyridin-4-yl)-1H,5H,6H,7H-pyrrolo[3,2-c]pyridin-4-one], the concentration for half-maximal inhibition (IC50) in experiment [5], in experiment [1], in experiment [2], in experiment [6] and in experiment [4] was under 100 nM in each case.

For the molecule `COc1c(F)cccc1Nc1c(-c2ncnc3c2ccn3C)[nH]c2c1C(=O)NCC2` [Compound 150, 3-((3-fluoro-2-methoxyphenyl)amino)-2-(7-methyl-7H-pyrrolo[2,3-d]pyrimidin-4-yl)-1,5,6,7-tetrahydro-4H-pyrrolo[3,2-c]pyridin-4-one], the IC50 in experiment [1], in experiment [2] and in experiment [4] was over 1000 nM in each case.

`COc1ccc2nccc(-c3[nH]c4c(c3Nc3cccc(Cl)c3OC)C(=O)NCC4)c2n1` [Compound 149, 3-((3-chloro-2-methoxyphenyl)amino)-2-(6-methoxy-1,5-naphthyridin-4-yl)-1,5,6,7-tetrahydro-4H-pyrrolo[3,2-c]pyridin-4-one]: the IC50 in experiment [5], in experiment [1], in experiment [3], in experiment [6] and in experiment [4] was under 100 nM throughout.

Consider `COc1nc2c(-c3[nH]c4c(c3Nc3cccc(F)c3OC)C(=O)NCC4)ccnc2cc1C` [Compound 682, 3-[(3-fluoro-2-methoxyphenyl)amino]-2-(6-methoxy-7-methyl-1,5-naphthyridin-4-yl)-1H,5H,6H,7H-pyrrolo[3,2-c]pyridin-4-one], for which the IC50 in experiment [1], in experiment [2] and in experiment [4] was under 100 nM each time.

For the molecule `COc1c(F)cccc1Nc1c(-c2ncnc3[nH]ncc23)[nH]c2c1C(=O)NCC2` [Compound 158, 3-((3-fluoro-2-methoxyphenyl)amino)-2-(1H-pyrazolo[3,4-d]pyrimidin-4-yl)-1,5,6,7-tetrahydro-4H-pyrrolo[3,2-c]pyridin-4-one], the results for the IC50 in experiment [1], in experiment [2] and in experiment [4] were 100 to 1000 nM, over 1000 nM and over 1000 nM, respectively.

As for `COc1c(F)cccc1Nc1c(-c2ncnc3sccc23)[nH]c2c1C(=O)NCC2` [compound 138], the IC50 in experiment [1], in experiment [2] and in experiment [4] was over 1000 nM each time.

Turning to `COc1c(F)cccc1Nc1c(-c2ccnc(-c3ccccc3)c2)[nH]c2c1C(=O)NCC2` [Compound 159, 3-((3-fluoro-2-methoxyphenyl)amino)-2-(2-phenylpyridin-4-yl)-1,5,6,7-tetrahydro-4H-pyrrolo[3,2-c]pyridin-4-one], the IC50 in experiment [1] was over 1000 nM; in experiment [2] it was 100 to 1000 nM; in experiment [4], over 1000 nM.

With `COc1c(Cl)cccc1Nc1c(-c2ccnc(N)n2)[nH]c2c1C(=O)NC[C@@H]2C[C@@H]1COCCO1` [Compound 532, (7S)-2-(2-aminopyrimidin-4-yl)-3-[(3-chloro-2-methoxyphenyl)amino]-7-[(2R)-1,4-dioxan-2-ylmethyl]-1H,5H,6H,7H-pyrrolo[3,2-c]pyridin-4-one], the IC50 in experiment [5] was under 100 nM; in experiment [1], under 100 nM; in experiment [2] it was over 1000 nM; in experiment [6], under 100 nM; in experiment [4], under 100 nM.

`COc1c(Cl)cccc1Nc1c(-c2ccnc(NC(=O)c3cccc(F)c3)n2)[nH]c2c1C(=O)NCC2` [compound 102]: the IC50 in experiment [5] is 100 to 1000 nM; in experiment [7], under 100 nM; in experiment [2], over 1000 nM; in experiment [3], 100 to 1000 nM; in experiment [6] it was 100 to 1000 nM; in experiment [4], 100 to 1000 nM.
